According to patent publication US9216222B2 (priority 2013, dated 2015):

Experiments:
methemoglobin (metHb) [1] = test system: methemoglobin (metHb); set-up: species or system rats; settings: rat, in vivo
methemoglobin (metHb) [2] = settings: in vivo; cited from earlier work

Structure (SMILES)	metHb levels achieved (can reach) (methemoglobin (metHb) [1])	maximum metHb levels (methemoglobin (metHb) [2])
CC(C)CCON=O [Isoamyl Nitrite, 3-methylbutyl nitrite]	≥ 20.0%	–
CCCCCO[N+](=O)[O-] [amyl nitrate]	–	3.45-7.0%
